The source of these data is publication PMC5834442, “Identifying inhibitors of the Leishmania inositol phosphorylceramide synthase with antiprotozoal activity using a yeast-based assay and ultra-high throughput screening platform” (Scientific Reports, 2018).

Structures are written as SMILES. Where two headings read alike, the source gives them in different places.

Experiment [1] deals with HepG2 cells. Description: Mammalian cell cytotoxicity assay (CellTiter-Glo). It is filed as cell-based, human. Particulars: for IC50: Homo sapiens, -logIC50 mol against HepG2, read-out: PIC50 HepG2 (converted). Background: ATP-based viability assays read luminescence as a measure of living cells.
Experiment [2] relates to L. donovani (MHOM/SD/62/1S-CL2D, LdBOB) axenic amastigotes. Description: Leishmania donovani axenic amastigote dose response assay (resazurin). Type of experiment: cell-based. Particulars: -logIC50 mol against L. donovani (LdBOB) axenic amastigotes, read-out: pIC50 Axenic (converted).
Where [3] appears, read: selectivity: pIC50 axenic minus pIC50 HepG2.
The mark [4] stands for this setting: selectivity, pIC50 axenic minus pIC50 HepG2.

As for `N#Cc1nc(-c2ccccc2)oc1S(=O)(=O)c1ccc(Br)cc1` [ST/1197083], the figures for the IC50 in experiment [1] and in experiment [2] were 60.3 µM and 0.363 µM, respectively. For the same molecule, the “pSI v HepG2” value in experiment [1] (setting [3]) was found to be 2.22.
Turning to `N#Cc1ccccc1Cn1cc(C(=O)c2ccccc2)c2ccccc21` [ST/1274537], in experiment [1], the “pSI v HepG2” value came to 1.45 and the IC50 was over 100 µM. Besides, the IC50 in experiment [2] was 3.55 µM.
Turning to `C=CCSc1nsc(NC(=O)Nc2ccc(Cl)cc2C(F)(F)F)n1` [ST/566960], the IC50 in experiment [1] was 23.4 µM; in experiment [2] it was 0.501 µM. Further, the “pSI v HepG2” value in experiment [1] (setting [3]) is listed as 1.67.
The matching figures for `O=C(Nc1ccccc1Cl)C(=Cc1cccc(F)c1)C(=O)Nc1ccccc1Cl` [ST/786453]: 6.76 µM, 0.204 µM and 1.52.
With `O=C(Nc1nnc(-c2ccccc2)o1)c1ccc2c(c1)CCCC2` [ST/912241], the figures for the IC50 in experiment [1] and in experiment [2] were over 100 µM and 1.23 µM, respectively. Besides, in experiment [1] (setting [4]), the “pSI v HepG2” value is 1.91.
In the case of `O=C(Nc1ccc(OC(F)(F)F)cc1)Nc1ccc([N+](=O)[O-])cc1` [ST/500242], the IC50 is 14.1 µM in experiment [1] and 4.27 µM in experiment [2]. The “pSI v HepG2” value in experiment [1] (setting [3]) was 0.52.
The matching figures for `COc1ccc(N(Cc2ccc(-c3ccccc3)o2)S(=O)(=O)c2ccccn2)cc1` [AD102638-200A3B22]: 61.7 µM, 5.89 µM and 1.02.
The matching figures for `O=C(Nc1nnc(C(F)(F)F)s1)c1ccc(Cl)cc1` [ST/570135]: 16.2 µM, 3.47 µM and 0.67.
As to `N#Cc1ccc(C=C(C(=O)Nc2ccccc2Cl)C(=O)Nc2ccccc2Cl)cc1` [ST/786454], the IC50 is 3.63 µM in experiment [1] and 0.0741 µM in experiment [2]. In addition, the “pSI v HepG2” value in experiment [1] (setting [3]) was found to be 1.69.
On to `COc1cc([N+](=O)[O-])ccc1NC(=O)Nc1ccc(OC(F)(F)F)cc1` [ST/871026], for which the IC50 in experiment [1] is 13.2 µM; in experiment [2], 6.92 µM. Further, the “pSI v HepG2” value in experiment [1] (setting [4]) came to 0.28.
In the case of `CC1(C)CCC(=Cc2ccc(Cl)cc2)CC1(O)Cn1ccnc1` (centres unmarked) [ST/1098001], the IC50 in experiment [1] is 46.8 µM; in experiment [2] it was 5.5 µM. The “pSI v HepG2” value in experiment [1] (setting [3]) turned out to be 0.93.
The matching figures for `C=CCOc1ccc(-c2nc(-c3ccc4c(c3)CCNCC4)no2)cc1Cl.Cl` [N11110-83-1]: 4.37 µM, 7.94 µM and -0.26.
On to `O=C(Nc1ccc2scnc2c1)c1ccc(Cl)s1` [ST/1127597], for which the figures for the IC50 in experiment [1] and in experiment [2] were 97.7 µM and 6.46 µM, respectively. Besides, the “pSI v HepG2” value in experiment [1] (setting [3]) is on record as 1.18.
Consider `Cc1ccc(-c2ccnc(-c3ccc(O)cc3)n2)cc1` [SC/128042], for which the results for the IC50 in experiment [1] and in experiment [2] were over 100 µM and 6.61 µM, respectively. The “pSI v HepG2” value in experiment [1] (setting [3]) was found to be 1.18.
As to `Cc1cc([N+](=O)[O-])ccc1NC(=O)Nc1cccc(F)c1` [SC/109683], in experiment [1], the “pSI v HepG2” value is recorded as 0.54 and the IC50 is 13.2 µM. The IC50 in experiment [2] was 3.8 µM.
With `O=[N+]([O-])c1cc(NS(=O)(=O)c2ccc(Cl)c(C(F)(F)F)c2)ccc1F` [ST/654862], the IC50 in experiment [1] was 38.9 µM; in experiment [2] it was 4.17 µM. For the same molecule, in experiment [1] (setting [3]), the “pSI v HepG2” value is 0.97.
The matching figures for `O=S(=O)(Nc1cccc(F)c1CN1CCC(F)(F)C1)c1ccc(Cl)c(Cl)c1` [DS105792-004A6B1]: 47.9 µM, 9.12 µM and 0.72.
For `O=C(Nc1cc(C(F)(F)F)ccc1Cl)c1ccccc1O` [SC/67526], the IC50 in experiment [1] was 15.1 µM; in experiment [2] it was 5.25 µM. The “pSI v HepG2” value in experiment [1] (setting [3]) amounted to 0.46.
The matching figures for `CNS(=O)(=O)c1ccc(C)c(Nc2nccc(-c3sc(C)nc3-c3ccccc3)n2)c1` [N6896-96-B1]: 38 µM, 0.661 µM and 1.76.
In the case of `Oc1ccc(-c2nccc(-c3ccc(Cl)cc3)n2)cc1` [SC/101464], the IC50 was over 100 µM in experiment [1] and 2.75 µM in experiment [2]. In addition, in experiment [1] (setting [3]), the “pSI v HepG2” value was determined as 1.56.
`O=C(c1cccc(F)c1)c1coc2ccc(Br)cc2c1=O` [ST/472875]: the IC50 in experiment [1] is 63.1 µM; in experiment [2] it was 2.29 µM. Moreover, the “pSI v HepG2” value in experiment [1] (setting [3]) turned out to be 1.44.
As for `O=C(Nc1nnc(C(F)(F)F)s1)c1ccc([N+](=O)[O-])c(Cl)c1` [ST/640830], the values for the IC50 in experiment [1] and in experiment [2] were 25.7 µM and 2.95 µM, respectively. The “pSI v HepG2” value in experiment [1] (setting [3]) is listed as 0.94.
The matching figures for `Cc1ccc(-c2cnc(N)c(-c3nc4ccc(F)cc4[nH]3)c2)cc1` [HL209813-065A1]: 75.9 µM, 7.59 µM and 1.00.
In the case of `Cc1ccc(NC(=O)Nc2ccc(Cl)c([N+](=O)[O-])c2)cc1` [ST/875327], the IC50 in experiment [1] is 22.9 µM; in experiment [2], 9.55 µM. The “pSI v HepG2” value in experiment [1] (setting [4]) is 0.38.
In the same order, the values of `CCCc1cc(=O)[nH]c(Nc2cc(Cl)cc(Cl)c2)n1` [ST/826453] are 14.1 µM, 8.91 µM and 0.20.
Turning to `Cc1ccccc1C(=O)N(Cc1cccnc1)c1nc2c(F)cccc2s1` [ST/1131244], the IC50 in experiment [1] is 52.5 µM; in experiment [2], 8.13 µM. Further, the “pSI v HepG2” value in experiment [1] (setting [3]) turned out to be 0.81.
The matching figures for `Cc1[nH]c2ccccc2c(=O)c1Cc1ccc(C(F)(F)F)cc1` [4671W 92C*A]: over 100 µM, 1.17 µM and 1.93.
In the case of `OCc1ccn2nc(-c3ccc(F)cc3)c(-c3ccncc3)c2c1` [U11871/14/3], the IC50 in experiment [1] was over 100 µM; in experiment [2], 1.91 µM. In addition, the “pSI v HepG2” value in experiment [1] (setting [4]) was 1.72.
For `Cc1nc(-c2ccccc2)c(-c2ccnc(Nc3cc(S(N)(=O)=O)ccc3C)n2)s1` [N6896-93-B1], the IC50 in experiment [1] is over 100 µM; in experiment [2], 1.55 µM. For the same molecule, the “pSI v HepG2” value in experiment [1] (setting [3]) worked out at 1.81.
For the molecule `Cc1ccc(S(=O)(=O)Nc2cc(Cl)c(Cl)cc2Cl)cc1` [ST/411835], the IC50 was over 100 µM in experiment [1] and 7.08 µM in experiment [2]. For the same molecule, the “pSI v HepG2” value in experiment [1] (setting [3]) is 1.15.
For `O=[N+]([O-])c1ccc(NS(=O)(=O)c2ccccc2)c(-c2ccccc2)c1` [VDPP/14/72/1], the IC50 in experiment [1] is 35.5 µM; in experiment [2], 5.01 µM. Further, in experiment [1] (setting [4]), the “pSI v HepG2” value stood at 0.85.
Consider `Clc1ccc(Cn2nnc(-c3ccc(CN4CCOCC4)cc3)n2)cc1` [ST/852088], for which the IC50 in experiment [1] is over 100 µM; in experiment [2], 3.24 µM. Further, the “pSI v HepG2” value in experiment [1] (setting [4]) amounted to 1.49.
Regarding `O=C(Nc1nc2ccc([N+](=O)[O-])cc2s1)c1cc(Cl)sc1Cl` [ST/489542], the IC50 in experiment [1] is 10 µM; in experiment [2], 1.29 µM. Also, the “pSI v HepG2” value in experiment [1] (setting [3]) worked out at 0.89.
On to `O=C(Nc1ccc2ncsc2c1)c1ccc(Br)s1` [ST/1280764], for which the IC50 in experiment [1] was over 100 µM; in experiment [2], 6.92 µM. Further, in experiment [1] (setting [3]), the “pSI v HepG2” value amounted to 1.16.
Turning to `COc1ccccc1-c1nn(-c2c(C)cccc2C)c2[nH]c(=O)cc(C(F)(F)F)c12` [ST/1471361], the IC50 in experiment [1] is over 100 µM; in experiment [2] it was 7.94 µM. The “pSI v HepG2” value in experiment [1] (setting [3]) is reported as 1.10.
`O=C(Nc1cccc(C(F)(F)F)c1)c1cc(-c2cccc(O)c2)on1` [ST/728737]: the IC50 in experiment [2] was over 50 µM.
With `O=c1nc(SCc2ccccc2F)c2c([nH]1)CCCC2` [ST/915519], in experiment [2], the IC50 is over 50 µM.
On the same count and under the same terms, next, `CCOc1ccc2[nH]c(=O)c(CN(Cc3cccnc3)C(=O)Nc3ccc(F)cc3)cc2c1` [ST/696972]: over 50 µM; `O[C@@]1(c2ccc(F)cc2)CCCC[C@@H]1n1cncn1` [ST/2183803]: over 50 µM; `COc1ccc(-c2ccc(S(=O)(=O)Nc3ncc(Cl)cc3Cl)s2)cc1` [DJ107456-088A34]: 27.5 µM.
`O=C(Nc1cccc(Cl)c1)Nc1ccc2snnc2c1` [ST/736217]: in experiment [2], the IC50 is 13.5 µM.
Take `Cc1ccc(Nc2nc(C(N)=O)c(NC(=O)C3CCC3)s2)cc1` [ST/1548033]: in experiment [2], the IC50 is over 50 µM.
On to `OC(Cn1ccnc1)(c1ccc(Cl)cc1Cl)C1CCCCC1` (centres unmarked) [CJL/479/3], for which the IC50 in experiment [1] was 45.7 µM; in experiment [2] it was 5.75 µM. Moreover, the “pSI v HepG2” value in experiment [1] (setting [3]) worked out at 0.90.
With `COc1ccc(S(=O)(=O)Nc2cc(Cl)ccc2C)c(C)c1C` [ST/724177], the IC50 in experiment [2] is 19.1 µM.
Same read-out and setting: next, `O[C@@](Cn1cncn1)(c1ccc(F)cc1F)C1CCOCC1` [RB/854/3]: over 50 µM; `O=S(=O)(Nc1c(F)cccc1C(F)(F)F)c1ccc(-c2ccccc2F)s1` [DJ107456-080A211]: 26.9 µM.
As for `O=C(Nc1cccc(Cl)c1)Nc1ccc2nnsc2c1` [SC/98031], the IC50 was 17.8 µM in experiment [1] and 6.61 µM in experiment [2]. In experiment [1] (setting [3]), the “pSI v HepG2” value worked out at 0.43.
As for `O=S(=O)(Nc1cccc2nsnc12)c1cccs1` [SC/96769], the IC50 in experiment [2] was 24.5 µM.
Still for that read-out and setting: next, `COc1ccc(S(=O)(=O)Nc2ccccc2C(F)(F)F)c(Cl)c1Cl` [ST/534228]: 19.5 µM; `N#Cc1ccc(Cn2cc(C(=O)c3cccs3)c3ccccc32)cc1` [ST/516872]: 14.8 µM.
For `Cc1cnc(NS(=O)(=O)c2ccc(-c3ccc(F)cc3)s2)c(Br)c1` [DJ107456-057A22], the IC50 in experiment [2] is 28.2 µM.
Regarding `O=C(NCc1cccs1)c1sccc1NS(=O)(=O)c1ccccc1` [RF44798-098A21], the IC50 in experiment [2] was 12.3 µM.
Same read-out and setting: next, `O=S(=O)(Nc1ccccc1Br)c1ccc(Cl)c(C(F)(F)F)c1` [ST/630987]: 19.1 µM; `COc1cccc(C(=O)Nc2nc(-c3cccs3)ns2)c1` [ST/1197587]: 21.9 µM; `O=S(=O)(c1ccccc1)N1CCN(c2nccc(-c3cccs3)n2)CC1` [ST/1415180]: 39.8 µM.
`Cc1ccc2cc(C(=O)Nc3ccc(C)c(N)c3)sc2c1` [ST/551412]: the IC50 in experiment [2] is 20.4 µM.
Same read-out and setting: next, `O=C(NNC(=O)c1c(O)c2ccccc2[nH]c1=O)c1ccc(Cl)cc1Cl` [SC/110880]: over 50 µM.
